In US9156796B2, “Benzoimidazole-carboxylic acid amide derivatives as APJ receptor modulators” (SANOFI, priority 2013, dated 2015) one finds EC50 data, which are given here for 28 compounds.

By EC50 is commonly meant the concentration that produces a half-maximal response.

SMILES strings stand for the structures. Read-outs that look alike come from different tables or passages of the source.

The target of the test is T1, human apelin receptor (Homo sapiens, UniProt P35414).
T1 construct: expressed in transfected cells
T1 sequence (P35414 1-380): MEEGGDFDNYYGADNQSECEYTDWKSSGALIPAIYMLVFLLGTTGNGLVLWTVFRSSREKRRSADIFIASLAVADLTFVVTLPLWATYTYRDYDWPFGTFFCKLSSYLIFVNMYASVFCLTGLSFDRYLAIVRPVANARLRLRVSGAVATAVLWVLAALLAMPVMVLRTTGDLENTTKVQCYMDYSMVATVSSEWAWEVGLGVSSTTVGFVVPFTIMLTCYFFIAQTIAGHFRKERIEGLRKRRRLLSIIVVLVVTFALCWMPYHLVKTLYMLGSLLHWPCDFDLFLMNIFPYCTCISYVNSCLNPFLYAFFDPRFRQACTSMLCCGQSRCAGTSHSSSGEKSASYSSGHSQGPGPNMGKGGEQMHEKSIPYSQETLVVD
Description: Determination of agonism on the human apelin receptor by a calcium fluorescence assay (FLIPR). The test is classed as cell-based. The note with it: HEK293 cells stably transfected with human apelin receptor and Giaq protein, Fluo-4 calcium fluorescence. The essentials:
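Agonist EC50s come from peak intracellular calcium transients recorded by FLIPR Tetra, scaled to the 1 μM apelin-13 maximum per plate. Test system: HEK293 stably transfected with human apelin receptor plus Giaq, Fluo-4-loaded (4 μM, 1 h, 37 °C, pH 7.4 buffer with probenecid); ≥7 concentrations, triplicates.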

For the compound `CCCCN1CCC(CNC(=O)[C@H](CC(C)C)NC(=O)c2ccc3c(c2)nc(Cc2cccs2)n3C(CC)CC)CC1` [Example 331, 1-(1-Ethyl-propyl)-2-thiophen-2-ylmethyl-1H-benzoimidazole-5-carboxylic acid {(S)-1-[(1-butyl-piperidin-4-ylmethyl)-carbamoyl]-3-methyl-butyl}-amide], under “read-out: EC50 (APJ agonism)”, the 50% effective concentration (EC50) was found to be 0.267 µM.

`CCC(CC)n1c(CC2CCCC2)nc2cc(C(=O)NC3(CO)CCCC3)ccc21` [Example 179, 2-Cyclopentylmethyl-1-(1-ethyl-propyl)-1H-benzoimidazole-5-carboxylic acid (1-hydroxymethyl-cyclopentyl)-amide]: the EC50 (read-out: EC50 (APJ agonism)) was found to be 25.2 µM.

On to `CCC(CC)n1c(Cc2cccs2)nc2cc(C(=O)N[C@@H](CC(C)C)C(=O)NC3CCN(Cc4ccncc4)CC3)ccc21` [Example 298, 1-(1-Ethyl-propyl)-2-thiophen-2-ylmethyl-1H-benzoimidazole-5-carboxylic acid [(S)-3-methyl-1-(1-pyridin-4-ylmethyl-piperidin-4-ylcarbamoyl)-butyl]-amide], for which, under “read-out: EC50 (APJ agonism)”, the concentration giving a half-maximal response (EC50) was found to be 1.26 µM.

As for `CCC(CC)n1c(Cc2cccs2)nc2cc(C(=O)N[C@@H](CC(C)C)C(=O)NCCCCN(C)C)ccc21` [Example 245, 1-(1-Ethyl-propyl)-2-thiophen-2-ylmethyl-1H-benzoimidazole-5-carboxylic acid [(S)-1-(4-dimethylamino-butylcarbamoyl)-3-methyl-butyl]-amide], the 50% effective concentration (EC50) (read-out: EC50 (APJ agonism)) turned out to be 0.291 µM.

For `CCC(CC)n1c(Cc2cccs2)nc2cc(C(=O)NC(CC3CCC(C)(C)CC3)C(=O)O)ccc21` (single isomer, unassigned) [Example 444], the EC50 (read-out: EC50 (APJ agonism)) was found to be 3.91 µM.

Consider `CC(C)C[C@H](NC(=O)c1ccc2c(c1)nc(Cc1cccs1)n2[C@@H]1CCCC[C@H]1C)[C@H](O)CC(=O)O` [Example 77, (3R,4S)-3-Hydroxy-6-methyl-4-{[1-((1R,2R)-2-methyl-cyclohexyl)-2-thiophen-2-ylmethyl-1H-benzoimidazole-5-carbonyl]-amino}-heptanoic acid], for which the concentration for a half-maximal effect (EC50) (read-out: EC50 (APJ agonism)) is 0.053 µM.

In the case of `O=C(N[C@@H](Cc1ccccc1)C(=O)O)c1ccc2c(c1)nc(Cc1cccs1)n2C1CCCCC1C(F)(F)F` (stereo partly drawn) [Example 89, (S)-3-Phenyl-2-{[2-thiophen-2-ylmethyl-1-(2-trifluoromethyl-cyclohexyl)-1H-benzoimidazole-5-carbonyl]-amino}-propionic acid], the 50% effective concentration (EC50) (read-out: EC50 (APJ agonism)) worked out at 9.33 µM.

As to `CCC(CC)n1c(Cc2cccs2)nc2cc(C(=O)N[C@@H](CC(C)C)C(=O)NCc3ccccc3)ccc21` [Example 220, 1-(1-Ethyl-propyl)-2-thiophen-2-ylmethyl-1H-benzoimidazole-5-carboxylic acid ((S)-1-benzylcarbamoyl-3-methyl-butyl)-amide], the EC50 (read-out: EC50 (APJ agonism)) was found to be 2.86 µM.

Take `CCC(CC)n1c(CC2CCCC2)nc2cc(C(=O)N[C@@H](CC(C)C)C(=O)O)ccc21` [Example 129, (S)-2-{[2-Cyclopentylmethyl-1-(1-ethyl-propyl)-1H-benzoimidazole-5-carbonyl]-amino}-4-methyl-pentanoic acid]: the EC50 (read-out: EC50 (APJ agonism)) was 2.68 µM.

On to `CCC(CC)n1c(Cc2cccs2)nc2cc(C(=O)N[C@@H](CC(C)C)C(=O)NCC3CCCCO3)ccc21` (stereo partly drawn) [Example 386, 1-(1-Ethyl-propyl)-2-thiophen-2-ylmethyl-1H-benzoimidazole-5-carboxylic acid {(S)-3-methyl-1-[(tetrahydro-pyran-2-ylmethyl)-carbamoyl]-butyl}-amide], for which the EC50 (read-out: EC50 (APJ agonism)) turned out to be 2.23 µM.

Take `CC1CCCCC1n1c(Cc2cccs2)nc2cc(C(=O)N[C@@H](CC3CCCCC3)C(=O)O)ccc21` (single isomer, unassigned) [Example 427]: the EC50 (read-out: EC50 (APJ agonism)) was 1.32 µM.

On to `CCC(CC)n1c(Cc2cccs2)nc2cc(C(=O)N[C@@H](CC(C)C)C(=O)N[C@H]3C[C@@H]3c3ccccc3)ccc21` [Example 259, 1-(1-Ethyl-propyl)-2-thiophen-2-ylmethyl-1H-benzoimidazole-5-carboxylic acid [(S)-3-methyl-1-((1S,2R)-2-phenyl-cyclopropylcarbamoyl)-butyl]-amide], for which the EC50 (read-out: EC50 (APJ agonism)) is 6.65 µM.

With `CCC(CC)n1c(Cc2cccs2)nc2cc(C(=O)N[C@@H](CCC(C)C)C(=O)O)ccc21` [Example 130, (S)-2-{[1-(1-Ethyl-propyl)-2-thiophen-2-ylmethyl-1H-benzoimidazole-5-carbonyl]-amino}-5-methyl-hexanoic acid], the EC50 (read-out: EC50 (APJ agonism)) amounted to 0.293 µM.

For `CCC(CC)n1c(CC2CCCC2)nc2cc(C(=O)N[C@H](CO)CCSC)ccc21` [Example 178, 2-Cyclopentylmethyl-1-(1-ethyl-propyl)-1H-benzoimidazole-5-carboxylic acid ((S)-1-hydroxymethyl-3-methylsulfanyl-propyl)-amide], the half-maximal effective concentration (EC50) (EC50 (APJ agonism)) came out at 17.4 µM.

On to `CCC(CC)n1c(Cc2cccs2)nc2cc(C(=O)N[C@@H](CC(C)C)C(=O)NCCCN3CCN(CC)CC3)ccc21` [Example 278, 1-(1-Ethyl-propyl)-2-thiophen-2-ylmethyl-1H-benzoimidazole-5-carboxylic acid {(S)-1-[3-{4-ethyl-piperazin-1-yl)-propylcarbamoyl]-3-methyl-butyl}-amide], for which the EC50 (read-out: EC50 (APJ agonism)) was 0.405 µM.

Regarding `CCC(CC)n1c(Cc2cccs2)nc2cc(C(=O)N[C@@H](CC(C)C)C(=O)NCCS(N)(=O)=O)ccc21` [Example 401, 1-(1-Ethyl-propyl)-2-thiophen-2-ylmethyl-1H-benzoimidazole-5-carboxylic acid [(S)-3-methyl-1-(2-sulfamoyl-ethylcarbamoyl)-butyl]-amide], the EC50 (read-out: EC50 (APJ agonism)) amounted to 0.6 µM.

Regarding `CCC(CC)n1c(Cc2cccs2)nc2cc(C(=O)N[C@@H](CC(C)C)C(=O)Nc3ccccc3OC)ccc21` [Example 255, 1-(1-Ethyl-propyl)-2-thiophen-2-ylmethyl-1H-benzoimidazole-5-carboxylic acid [(S)-1-(2-methoxy-phenylcarbamoyl)-3-methyl-butyl]-amide], the half-maximal effective concentration (EC50) (read-out: EC50 (APJ agonism)) was determined as 6.67 µM.

As to `CCCC[C@H](NC(=O)c1ccc2c(c1)nc(Cc1cccs1)n2C(CC)CC)C(=O)O` [Example 18, (S)-2-{[1-(1-Ethyl-propyl)-2-thiophen-2-ylmethyl-1H-benzoimidazole-5-carbonyl]-amino}-hexanoic acid], the EC50 (read-out: EC50 (APJ agonism)) came to 0.15 µM.

On to `CCC(CC)n1c(CC2CCCC2)nc2cc(C(=O)NC(CC(C)C)C(N)=O)ccc21` (stereo not shown) [Example 169, 2-Cyclopentylmethyl-1-(1-ethyl-propyl)-1H-benzoimidazole-5-carboxylic acid (1-carbamoyl-3-methyl-butyl)-amide], for which the half-maximal effective concentration (EC50) (read-out: EC50 (APJ agonism)) came out at 6.65 µM.

Turning to `CCC(CC)n1c(Cc2cccs2)nc2cc(C(=O)N[C@@H](CC(C)C)C(=O)NCCc3cccs3)ccc21` [Example 223, 1-(1-Ethyl-propyl)-2-thiophen-2-ylmethyl-1H-benzoimidazole-5-carboxylic acid [(S)-3-methyl-1-(2-thiophen-2-yl-ethylcarbamoyl)-butyl]-amide], where the note is “read-out: EC50 (APJ agonism)”, the EC50 stood at 6.96 µM.

For the compound `CCC(CC)n1c(Cc2cccs2)nc2cc(C(=O)N[C@@H](CC(C)C)C(=O)NCc3ccc(OC)cc3)ccc21` [Example 236, 1-(1-Ethyl-propyl)-2-thiophen-2-ylmethyl-1H-benzoimidazole-5-carboxylic acid [(S)-1-(4-methoxy-benzylcarbamoyl)-3-methyl-butyl]-amide], the concentration for a half-maximal effect (EC50) (read-out: EC50 (APJ agonism)) stood at 3.87 µM.

Consider `CCC(CC)n1c(Cc2cccs2)nc2cc(C(=O)N[C@@H](CC(C)C)C(=O)N3CCN(c4ccccc4OC)CC3)ccc21` [Example 315, 1-(1-Ethyl-propyl)-2-thiophen-2-ylmethyl-1H-benzoimidazole-5-carboxylic acid {(S)-1-[4-(2-methoxy-phenyl)-piperazine-1-carbonyl]-3-methyl-butyl}-amide], for which, under “read-out: EC50 (APJ agonism)”, the EC50 stood at 2.45 µM.

In the case of `CC(C)C[C@H](NC(=O)c1ccc2c(c1)nc(Cc1cccs1)n2C1CCCCC1C)C(=O)O` (stereo partly drawn) [Example 146, (S)-4-Methyl-2-{[1-(2-methyl-cyclohexyl)-2-thiophen-2-ylmethyl-1H-benzoimidazole-5-carbonyl]-amino}-pentanoic acid], where the note is “read-out: EC50 (APJ agonism)”, the EC50 is 0.328 µM.

For `CCC(CC)n1c(Cc2cccs2)nc2cc(C(=O)N[C@@H](CC(C)C)C(=O)NCC3COCCO3)ccc21` (stereo partly drawn) [Example 393, 1-(1-Ethyl-propyl)-2-thiophen-2-ylmethyl-1H-benzoimidazole-5-carboxylic acid {(S)-1-[([1,4]dioxan-2-ylmethyl)-carbamoyl]-3-methyl-butyl}-amide], for the setting “read-out: EC50 (APJ agonism)”, the EC50 worked out at 1.36 µM.

On to `CC(C)C[C@H](NC(=O)c1ccc2c(c1)nc(Cc1cccs1)n2C1CCCCC1)C(=O)O` [Example 108, (S)-2-[(1-Cyclohexyl-2-thiophen-2-ylmethyl-1H-benzoimidazole-5-carbonyl)-amino]-4-methyl-pentanoic acid], for which the EC50 (read-out: EC50 (APJ agonism)) amounted to 1.06 µM.

On to `CCC(C)n1c(Cc2cccs2)nc2cc(C(=O)N[C@@H](CC(C)C)C(=O)O)ccc21` (stereo partly drawn) [Example 147, (S)-2-[(1-sec-Butyl-2-thiophen-2-ylmethyl-1H-benzoimidazole-5-carbonyl)-amino]-4-methyl-pentanoic acid], for which the EC50 (read-out: EC50 (APJ agonism)) is 4.55 µM.

Consider `CC(C)C[C@H](NC(=O)c1ccc2c(c1)nc(Cc1cccs1)n2C1CCCCC1C)C(=O)O` (single isomer, unassigned) [Example 412], for which the 50% effective concentration (EC50) (read-out: EC50 (APJ agonism)) amounted to 0.106 µM.

As to `CCC(CC)n1c(Cc2ccco2)nc2cc(C(=O)N[C@@H](CC3CCCCC3)C(=O)O)ccc21` [Example 8, (S)-3-Cyclohexyl-2-{[1-(1-ethyl-propyl)-2-furan-2-ylmethyl-1H-benzoimidazole-5-carbonyl]-amino}-propionic acid], the concentration giving a half-maximal response (EC50) (read-out: EC50 (APJ agonism)) was determined as 0.107 µM.
